Patent US20140005163A1 (NOVARTIS AG, priority 2010, published 2014)
In brackets after ≈: the same amount, converted by molar mass.

Legend:
PI3K beta = target: T1, PI3K beta (Homo sapiens, UniProt P42338); assay: PI3K beta kinase assay (Kinase-Glo luminescence); type: biochemical
T1 construct: for the full-length p110-b subunit are generated and fused by overlapping PCR; p85(iSH2) fusion partner (see partner chain) (N); His tag (C); made in house; host or cells: baculovirus; Tn5 (Trichoplusia ni) or TiniPro insect cells
In short: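 Kinase-Glo luminescence after a 60 min room-temperature reaction gives remaining ATP. The reaction holds 25 nM p85(iSH2)-p110β full-length His-tagged construct, 1 μM ATP, 10 μg/mL PI, and eight compound concentrations at 0.45% DMSO final. IC50 values come from a four-parameter logistic fit.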

PI3K gamma = target: T2, PI3K gamma (Homo sapiens, UniProt P48736); assay: PI3K gamma kinase assay (Kinase-Glo luminescence); type: biochemical
T2 construct: His tag (C); made in house; host or cells: baculovirus (pVL1393); Tn5 or TiniPro insect cells; construct from Roger Williams lab, MRC LMB
Description: In a more preferred assay, the kinase reaction is performed in a final volume of 10 μL per well of a low volume non binding CORNING, 384 well black plate (Cat. No. #3676). The final concentrations of ATP and phosphatidyl inositol (PI) in the assay are 1 μM and 10 μg/mL respectively. The reaction is started by the addition of ATP.
The components of the assay are added per well as follows:
[…] in 90% DMSO per well, in columns 1-20, 8 concentrations (1/3 and 1/3.33 serial dilution step) in single. • Low control: […] of 90% DMSO in half the wells of columns 23-24 (0.45% in final). • High control: […] of reference compound (e.g. compound of Example 7 in WO 2006/122806) in the other half of columns 23-24 (2.5 μM in final). • Standard: […] of reference compound as just mentioned diluted as the test compounds in columns 21-22 • 20 mL ‘buffer’ are prepared per assay: • 200 μL of 1M TRIS HCl pH7.5 (10 mM in final) • 60 μL of 1M MgCl2 (3 mM in final) • 500 μL of 2M NaCl (50 mM in final) • 100 μL of 10% CHAPS (0.05% in final) • 200 μL of 100 mM DTT (1 mM in final) • 18.94 mL of nanopure water • 10 mL ‘PI’ are prepared per assay: • 200 μL of 1 mg/ml L-alpha-Phosphatidylinositol (Liver Bovine, Avanti Polar Lipids Cat. No. 840042C MW=909.12) prepared in 3% OctylGlucoside (10 μg/ml in final) • 9.8 mL of ‘buffer’ • 10 mL ‘ATP’ are prepared per assay: • 6.7 μL of 3 mM stock of ATP giving a final concentration of 1 μM per well • 10 mL of ‘buffer’ • 2.5 mL of each PI3K construct are prepared per assay in ‘PI’ with the following final concentration: • 10 nM PI3K alfa EMV B1075 • 25 nM beta EMV BV949 • 10 nM delta EMV BV1060 • 150 nM gamma EMV BV950 • 5 μL of ‘PI/PI3K’ are added per well. • 5 μl ‘ATP’ are added per well to start the reaction. • The plates are then incubated at room temperature for 60 minutes (alfa, beta, delta) or 120 minutes (gamma). • The reaction is terminated by the addition of 10 μL Kinase-Glo (Promega Cat. No. #6714). • The assay plates are read after 10 minutes in Synergy 2 reader (BioTek, Vermont USA) with an integration time of 100 milliseconds and sensitivity set to 191. • Output: The High control is around 60'000 counts and the Low control is 30'000 or lower • This luminescence assay gives a useful Z′ ratio between 0.4 and 0.7
IC50 is determined by a four parameter curve fitting routine that comes along with “excel fit”. […] Alternatively, IC50 values are calculated using idbsXLfit model 204, which is a 4 parameter logistic model.

PI3K delta = target: T3, PI3K delta (Homo sapiens, UniProt O00329); assay: PI3K delta kinase assay (Kinase-Glo luminescence); type: biochemical
T3 construct: for the full-length p110-d subunit are generated and fused by overlapping PCR; p85(iSH2) fusion partner (see partner chain) (N); His tag (C); made in house; host or cells: baculovirus; Tn5 (Trichoplusia ni) or TiniPro insect cells
In short: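 Inhibition is derived from luminescent detection of unconsumed ATP. The reaction runs for one hour at ambient temperature and contains the δ isoform fusion protein, phosphatidylinositol substrate and low (1 μM) ATP. Eight compound concentrations are tested in single, and a 4-parameter logistic model is used to calculate IC50.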

[1] = test system: PKB Ser473 phosphorylation in Rat1-myr-HA-p110 beta cells; assay: Reverse protein array assay, PKB Ser473 phosphorylation in Rat1-myr-p110 beta cells; type: cell-based; details: 0.5 h, pAkt Ser473, 30 minutes incubation, read-out: p-PKB IC50
In short: (§1)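 After at least 20 h of culture, the p110 isoform-transfected Rat1 lines receive compound in an 8-step dilution series, keeping DMSO at 0.2%, for 30 minutes. Cells are then lysed and lysates arrayed on chips for fluorescence detection of Ser473-phosphorylated PKB.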

[2] = test system: PKB Ser473 phosphorylation in Rat1-myr-HA-p110 delta cells; assay: Reverse protein array assay, PKB Ser473 phosphorylation in Rat1-myr-p110 delta cells; type: cell-based; details: read-out: p-PKB IC50
In short: as §1

[3] = test system: PKB Ser473 phosphorylation in Rat1-myr-HA-p110 alpha cells; assay: Reverse protein array assay, PKB Ser473 phosphorylation in Rat1-myr-p110 alpha cells; type: cell-based; details: 0.5 h, pAkt Ser473, 30 minutes compound incubation, read-out: p-PKB IC50
In short: as §1

PI3K alpha = target: T4, PI3K alpha (Homo sapiens, UniProt P42336); assay: PI3K alpha kinase assay (Kinase-Glo luminescence); type: biochemical
T4 construct: p85(iSH2) fusion partner (see partner chain) (N); His tag (C); made in house; host or cells: baculovirus; Tn5 (Trichoplusia ni) or TiniPro insect cells
In short: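 Luminescent ATP-depletion assay (Kinase-Glo) with 10 nM PI3Kα and 10 μg/mL phosphatidylinositol as lipid substrate at 1 μM ATP. Incubation lasts 60 min at room temperature.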

Solubility at pH 6.8 = type: physicochemical; details: pH 6.8, aqueous buffer, thermodynamic from solid; read-out: solubility
In short: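 Following the procedure of Zhou et al. (2007), compound solubility was determined at pH 6.8.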

T4 sequence (P42336 with tags, fused parts or gaps limits assumed): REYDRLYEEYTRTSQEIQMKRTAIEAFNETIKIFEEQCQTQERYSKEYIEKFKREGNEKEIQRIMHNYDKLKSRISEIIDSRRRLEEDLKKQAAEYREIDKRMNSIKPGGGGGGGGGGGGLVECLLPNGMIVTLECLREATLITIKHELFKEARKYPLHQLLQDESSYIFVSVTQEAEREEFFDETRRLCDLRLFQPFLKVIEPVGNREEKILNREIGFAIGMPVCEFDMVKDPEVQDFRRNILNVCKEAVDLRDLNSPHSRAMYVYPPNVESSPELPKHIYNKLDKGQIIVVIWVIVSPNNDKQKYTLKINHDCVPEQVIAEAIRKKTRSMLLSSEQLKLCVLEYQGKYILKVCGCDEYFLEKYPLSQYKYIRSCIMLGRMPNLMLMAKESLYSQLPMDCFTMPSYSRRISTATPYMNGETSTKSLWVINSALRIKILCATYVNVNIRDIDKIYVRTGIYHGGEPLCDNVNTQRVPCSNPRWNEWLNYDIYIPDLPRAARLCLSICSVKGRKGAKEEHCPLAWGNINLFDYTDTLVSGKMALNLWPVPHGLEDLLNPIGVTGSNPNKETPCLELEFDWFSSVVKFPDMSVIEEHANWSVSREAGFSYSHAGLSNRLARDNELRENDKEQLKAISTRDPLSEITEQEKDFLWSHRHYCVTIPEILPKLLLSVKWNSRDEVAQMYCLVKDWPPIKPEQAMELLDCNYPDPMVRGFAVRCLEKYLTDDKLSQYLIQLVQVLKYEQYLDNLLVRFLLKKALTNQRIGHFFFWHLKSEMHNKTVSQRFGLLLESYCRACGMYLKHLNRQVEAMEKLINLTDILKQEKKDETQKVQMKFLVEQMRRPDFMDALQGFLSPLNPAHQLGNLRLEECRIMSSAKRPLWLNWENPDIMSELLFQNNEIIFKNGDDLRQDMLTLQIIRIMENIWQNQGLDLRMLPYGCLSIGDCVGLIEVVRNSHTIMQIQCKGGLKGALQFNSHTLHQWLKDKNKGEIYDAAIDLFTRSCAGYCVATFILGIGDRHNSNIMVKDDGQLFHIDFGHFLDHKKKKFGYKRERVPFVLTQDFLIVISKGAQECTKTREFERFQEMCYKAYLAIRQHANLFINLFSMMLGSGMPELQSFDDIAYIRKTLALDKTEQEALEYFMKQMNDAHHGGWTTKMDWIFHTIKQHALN
T1 sequence (P42338 with tags, fused parts or gaps limits assumed): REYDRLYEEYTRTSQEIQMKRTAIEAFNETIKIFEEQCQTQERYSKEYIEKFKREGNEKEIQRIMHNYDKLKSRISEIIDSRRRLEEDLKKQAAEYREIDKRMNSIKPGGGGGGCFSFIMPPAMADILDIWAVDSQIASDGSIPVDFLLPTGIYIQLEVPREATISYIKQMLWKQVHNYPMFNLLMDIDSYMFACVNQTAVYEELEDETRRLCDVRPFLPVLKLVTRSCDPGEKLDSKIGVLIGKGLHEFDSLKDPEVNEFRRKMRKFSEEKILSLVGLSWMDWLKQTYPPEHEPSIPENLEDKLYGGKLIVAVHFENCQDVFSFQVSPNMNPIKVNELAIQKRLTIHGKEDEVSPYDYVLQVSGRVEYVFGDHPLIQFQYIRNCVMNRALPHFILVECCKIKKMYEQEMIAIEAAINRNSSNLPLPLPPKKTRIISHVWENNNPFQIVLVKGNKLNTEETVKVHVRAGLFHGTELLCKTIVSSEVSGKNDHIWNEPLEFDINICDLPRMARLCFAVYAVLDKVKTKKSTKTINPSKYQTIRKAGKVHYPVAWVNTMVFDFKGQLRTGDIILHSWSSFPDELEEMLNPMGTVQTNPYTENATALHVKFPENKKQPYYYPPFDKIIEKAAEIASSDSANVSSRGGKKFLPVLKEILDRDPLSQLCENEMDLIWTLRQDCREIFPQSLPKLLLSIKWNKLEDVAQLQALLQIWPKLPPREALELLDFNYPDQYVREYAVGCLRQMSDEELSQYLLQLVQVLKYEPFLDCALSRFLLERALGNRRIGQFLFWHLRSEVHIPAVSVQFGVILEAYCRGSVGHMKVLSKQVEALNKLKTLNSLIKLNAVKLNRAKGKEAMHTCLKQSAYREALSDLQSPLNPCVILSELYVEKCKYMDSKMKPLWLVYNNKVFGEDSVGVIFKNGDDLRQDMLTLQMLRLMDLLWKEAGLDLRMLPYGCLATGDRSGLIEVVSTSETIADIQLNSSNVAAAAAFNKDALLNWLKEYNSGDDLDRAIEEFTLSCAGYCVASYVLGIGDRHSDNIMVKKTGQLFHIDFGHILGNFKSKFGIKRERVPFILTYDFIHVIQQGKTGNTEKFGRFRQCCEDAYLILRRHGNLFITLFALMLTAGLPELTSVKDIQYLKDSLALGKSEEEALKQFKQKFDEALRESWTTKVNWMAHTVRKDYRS
T3 sequence (O00329 with tags, fused parts or gaps limits assumed): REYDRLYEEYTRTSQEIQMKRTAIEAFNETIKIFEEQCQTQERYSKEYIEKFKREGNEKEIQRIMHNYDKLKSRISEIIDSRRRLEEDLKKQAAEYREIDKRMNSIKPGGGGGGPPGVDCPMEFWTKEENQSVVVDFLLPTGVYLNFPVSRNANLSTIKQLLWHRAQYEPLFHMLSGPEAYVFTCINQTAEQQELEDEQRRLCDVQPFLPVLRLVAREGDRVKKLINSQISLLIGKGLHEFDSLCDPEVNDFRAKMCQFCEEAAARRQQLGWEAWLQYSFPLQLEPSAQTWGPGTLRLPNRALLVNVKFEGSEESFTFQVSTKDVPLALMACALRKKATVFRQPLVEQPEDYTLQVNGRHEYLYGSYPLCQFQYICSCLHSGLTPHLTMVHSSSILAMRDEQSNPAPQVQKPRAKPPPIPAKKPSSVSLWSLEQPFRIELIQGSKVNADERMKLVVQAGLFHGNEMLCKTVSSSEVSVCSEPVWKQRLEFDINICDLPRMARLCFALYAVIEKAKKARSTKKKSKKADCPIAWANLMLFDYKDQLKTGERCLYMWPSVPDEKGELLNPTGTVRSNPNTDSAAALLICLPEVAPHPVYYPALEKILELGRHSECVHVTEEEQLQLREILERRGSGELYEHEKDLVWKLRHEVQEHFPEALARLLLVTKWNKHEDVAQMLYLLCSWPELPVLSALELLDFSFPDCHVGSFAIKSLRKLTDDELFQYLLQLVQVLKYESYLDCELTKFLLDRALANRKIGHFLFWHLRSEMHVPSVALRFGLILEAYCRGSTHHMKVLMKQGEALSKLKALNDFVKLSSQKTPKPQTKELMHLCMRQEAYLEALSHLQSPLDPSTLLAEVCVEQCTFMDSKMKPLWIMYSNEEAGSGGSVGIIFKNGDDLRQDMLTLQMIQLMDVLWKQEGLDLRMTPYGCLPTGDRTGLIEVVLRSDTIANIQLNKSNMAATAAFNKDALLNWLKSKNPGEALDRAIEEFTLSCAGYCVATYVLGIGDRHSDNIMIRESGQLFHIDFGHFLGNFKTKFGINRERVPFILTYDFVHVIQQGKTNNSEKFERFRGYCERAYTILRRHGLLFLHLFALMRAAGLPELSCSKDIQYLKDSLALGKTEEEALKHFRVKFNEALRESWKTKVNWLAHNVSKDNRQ
T2 sequence (P48736 144-1102 limits assumed): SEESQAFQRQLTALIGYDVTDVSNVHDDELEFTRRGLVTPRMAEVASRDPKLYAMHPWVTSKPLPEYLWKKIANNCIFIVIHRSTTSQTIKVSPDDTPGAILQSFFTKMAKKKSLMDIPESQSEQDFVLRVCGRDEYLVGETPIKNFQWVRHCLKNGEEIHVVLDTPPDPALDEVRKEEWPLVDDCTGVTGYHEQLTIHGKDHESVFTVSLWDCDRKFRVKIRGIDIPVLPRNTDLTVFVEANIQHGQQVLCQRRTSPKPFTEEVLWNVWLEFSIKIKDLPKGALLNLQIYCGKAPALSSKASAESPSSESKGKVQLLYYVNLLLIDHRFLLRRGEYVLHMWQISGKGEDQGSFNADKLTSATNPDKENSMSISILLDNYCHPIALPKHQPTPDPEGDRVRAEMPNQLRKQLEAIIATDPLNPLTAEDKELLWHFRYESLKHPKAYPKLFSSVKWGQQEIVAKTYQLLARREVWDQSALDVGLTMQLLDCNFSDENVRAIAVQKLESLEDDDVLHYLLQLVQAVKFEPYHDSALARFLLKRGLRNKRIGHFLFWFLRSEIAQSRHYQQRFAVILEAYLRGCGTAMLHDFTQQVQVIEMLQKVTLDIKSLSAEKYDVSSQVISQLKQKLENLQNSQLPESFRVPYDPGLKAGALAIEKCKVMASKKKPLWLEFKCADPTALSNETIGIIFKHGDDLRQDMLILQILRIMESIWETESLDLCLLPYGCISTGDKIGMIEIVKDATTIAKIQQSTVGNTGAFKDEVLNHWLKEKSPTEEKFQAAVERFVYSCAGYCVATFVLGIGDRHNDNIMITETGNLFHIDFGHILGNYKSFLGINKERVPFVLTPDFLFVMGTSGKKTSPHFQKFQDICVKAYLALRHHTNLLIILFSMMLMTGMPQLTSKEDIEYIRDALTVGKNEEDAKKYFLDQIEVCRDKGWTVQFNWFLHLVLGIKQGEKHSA

IC50 (PI3K beta)	IC50 (PI3K gamma)	IC50 (PI3K delta)	IC50 [1]	IC50 [2]	IC50 [3]	IC50 (PI3K alpha)	solubility (Solubility at pH 6.8)	Compound
152 nM	120 nM	169 nM	147 nM	249 nM	82 nM	59 nM	6 µg/mL (≈ 14 µM)	COc1ccc(-c2ccc3ncc4c(c3c2)n(-c2c(C)cnn2C)c(=O)n4C)cc1OC [Example 1.7, 8-(3,4-Dimethoxy-phenyl)-1-(2,4-dimethyl-2H-pyrazol-3-yl)-3-methyl-1,3-dihydro-imidazo[4,5-c]quinolin-2-one]
241 nM	140 nM	432 nM	795 nM	946 nM	552 nM	94 nM	8 µg/mL (≈ 20 µM)	COc1ccc(-c2ccc3ncc4c(c3c2)n(-c2c(C)cnn2C)c(=O)n4C)cn1 [Example 2.1, 1-(2,4-Dimethyl-2H-pyrazol-3-yl)-8-(6-methoxy-pyridin-3-yl)-3-methyl-1,3-dihydro-imidazo[4,5-c]quinolin-2-one]
799 nM	273 nM	292 nM	937 nM	1630 nM	594 nM	136 nM	> 384 µg/mL	Cc1nn(C)c(C)c1-n1c(=O)n(C)c2cnc3ccc(-c4cccnc4)cc3c21 [Example 10.1, 3-Methyl-8-pyridin-3-yl-1-(1,3,5-trimethyl-1H-pyrazol-4-yl)-1,3-dihydro-imidazo[4,5-c]quinolin-2-one]
843 nM	183 nM	93 nM	634 nM	672 nM	375 nM	94 nM	40 µg/mL (≈ 81.5 µM)	Cc1nn(C)c(C)c1-n1c(=O)n(C)c2cnc3ccc(-c4cccc(S(=O)(=O)N(C)C)c4)cc3c21 [Example 53.2, N,N-Dimethyl-3-[3-methyl-2-oxo-1-(1,3,5-trimethyl-1H-pyrazol-4-yl)-2,3-dihydro-1H-imidazo[4,5-c]quinolin-8-yl]-benzenesulfonamide]
228 nM	257 nM	129 nM			304 nM	82 nM	300 µg/mL (≈ 700 µM)	CCOc1cncc(-c2ccc3ncc4c(c3c2)n(-c2c(C)nn(C)c2C)c(=O)n4C)c1 [Example 56.3, 8-(5-Ethoxy-pyridin-3-yl)-3-methyl-1-(1,3,5-trimethyl-1H-pyrazol-4-yl)-1,3-dihydro-imidazo[4,5-c]quinolin-2-one]
